# Source: patent US20210386367A1, “DEVICES AND SYSTEMS FOR GASTROINTESTINAL MICROBIOME DETECTION AND MANIPULATION” (Progenity, Inc., priority 2018, published 2021)
# Read-outs that look alike come from different tables or passages of the source.
# Assays:
# [1] = tested on: B. vulgatus; test: Spontaneous mutation frequency and mutation prevention concentration (MPC); assay type: cell-based; conditions: B. vulgatus ATCC 8482
# Description: (§1) As used herein, “spontaneous mutation frequency” refers to the rate at which mutations arise in a bacterium that can lead to resistance to develop to an antimicrobial agent. “Mutation prevention concentration” or “MPC” refers to the lowest concentration of antimicrobial agent above which the selective proliferation of resistant mutants is expected to occur only rarely.
# [2] = tested on: Escherichia coli; test: as above; assay type: cell-based
# Description: as §1
# [3] = tested on: S. agalactiae; test: as above; assay type: cell-based; conditions: S. agalactiae ATCC 13813
# Description: as §1
# [4] = tested on: S. pyogenes; test: as above; assay type: cell-based; conditions: S. pyogenes ATCC 49399
# Description: as §1
# [5] = tested on: Bacteroides fragilis; test: Agar dilution MIC, 30 clinical isolates; assay type: cell-based; conditions: for Mode: modal MIC
# [6] = tested on: E. coli ATCC 35218 (TEM-1 β-lactamase producer); test: Broth microdilution MIC (time-kill study); assay type: cell-based, Escherichia coli
# [7] = tested on: S. pneumoniae ATCC 49619; test: Broth microdilution MIC (time-kill study); assay type: cell-based, Streptococcus pneumoniae
# [8] = tested on: B. fragilis ATCC 25285; test: Broth microdilution MIC (time-kill study); assay type: cell-based, Bacteroides fragilis
# [9] = tested on: B. ovatus MMX 3503; test: Broth microdilution MIC (time-kill study); assay type: cell-based, Bacteroides ovatus
# [10] = tested on: E. coli ATCC 35218; test: Time-kill assay; assay type: cell-based, Escherichia coli; conditions: 2×, 4×, 8× MIC; 2, 6, 24 hr
# [11] = tested on: S. agalactiae ATCC 13813; test: Time-kill assay; assay type: cell-based, Streptococcus agalactiae; conditions: 2×, 4×, 8× MIC; 2, 6, 24 hr
# [12] = tested on: E. coli (ATCC 25922, ATCC 35218, MMX 1312); test: Agar dilution MIC (spontaneous mutation study; strain in conditions); assay type: cell-based, Escherichia coli; conditions: Escherichia coli
# [13] = tested on: E. coli spontaneous mutants; test: Broth microdilution MIC of spontaneous mutants; assay type: cell-based, Escherichia coli; conditions: for MIC: Escherichia coli
# Description: Select isolates were subcultured onto agar containing drug at the selection concentration, were identified by MALDI, and were frozen for broth microdilution MIC testing as described below.
# To determine whether colonies growing on drug selection plates had elevated MIC values to the selecting antibiotic, susceptibility testing by broth microdilution was conducted on isolated mutants following methodology recommended by CLSI (1), (2), and (3) “Performance Standards for Antimicrobial Susceptibility Testing; Twenty-Eighth Informational Supplement.,” CLSI document M100-S28, 2018.
# All wells in columns 2 through 12 of a standard 96-well microdilution plate (Costar 3795) were filled with 150 μL of the appropriate diluent. Then, 300 μL of the test agents were added to the wells of column 1 of the plates at […] the highest final concentration to be tested. Serial two-fold dilutions were made across the rows through column 11 using the Biomek 2000. The wells of column 12 contained no drug and served as the growth control wells. This plate served as the “mother plate” from which selected MIC assay plates or “daughter plates” were made.
# 2 μL of drug solution from each well of a mother plate was added to each corresponding well of the daughter plate in a single step. A standardized inoculum of each aerobic test organism was prepared per CLSI methods to equal a 0.5 McFarland standard, followed by a dilution of 1:20 in MHB II. The plates were then inoculated with 10 μL of the diluted inoculum using the Biomek 2000 from low to high drug concentration, resulting in a final concentration of approximately 5×10^5 CFU/mL. An un-inoculated plate was incubated for the purpose of assessing solubility of the drug in the test media.
# The plates for the aerobic tests were stacked 3-4 high, covered with a sterile lid on the top plate, and incubated aerobically at 35° C. for 18-20 hr. The MIC was recorded as the lowest concentration of drug that inhibited visible growth of the organism.
# [14] = E. coli ATCC 25922, selection 4X MIC, 0.06 μg/mL
# [15] = E. coli ATCC 35218, selection 4X MIC, 0.06 μg/mL
# [16] = E. coli MMX 1312, selection 4X MIC, 0.06 μg/mL, TNTC = too numerous to count
# [17] = 30 Bacteroides fragilis clinical isolates
# [18] = B. ovatus MMX 3504 (so in the source)
compound,measurement,setting,value
C[C@@H](O)[C@H]1C(=O)N2C(C(=O)O)=C(S[C@@H]3CN[C@H](C(=O)N(C)C)C3)[C@H](C)[C@H]12 [meropenem],MPC,[1],0.5 µg/mL
same,Average Count,"[1]; selection 4X MIC, 0.5 μg/mL",0 CFU
same,Count 1,"[1]; selection 4X MIC, 0.5 μg/mL",0 CFU
same,Count 2,"[1]; selection 4X MIC, 0.5 μg/mL",0 CFU
same,Spontaneous Mutation Frequency,"[1]; selection 4X MIC, 0.5 μg/mL",≤1.73 × 10^−10
same,Average Count,"[1]; selection 8X MIC, 1 μg/mL",0 CFU
same,Count 1,"[1]; selection 8X MIC, 1 μg/mL",0 CFU
same,Count 2,"[1]; selection 8X MIC, 1 μg/mL",0 CFU
same,Spontaneous Mutation Frequency,"[1]; selection 8X MIC, 1 μg/mL",≤1.73 × 10^−10
same,Average Count,[2],0 CFU
same,Count 1,[2],0 CFU
same,Count 2,[2],0 CFU
same,MPC,[2]; E. coli ATCC 25922,0.06 µg/mL
same,Average Count,[2]; [14],0 CFU
same,Count 1,[2]; [14],0 CFU
same,Count 2,[2]; [14],0 CFU
same,Spontaneous Mutation Frequency,[2]; [14],≤7.41 × 10^−9
same,MPC,[2]; E. coli ATCC 35218,0.06 µg/mL
same,Average Count,[2]; [15],0 CFU
same,Count 1,[2]; [15],0 CFU
same,Count 2,[2]; [15],0 CFU
same,Spontaneous Mutation Frequency,[2]; [15],≤5.13 × 10^−9
same,Average Count,[2]; [16],TNTC
same,Count 1,[2]; [16],TNTC
same,Count 2,[2]; [16],TNTC
same,MPC,[3],0.12 µg/mL
same,MPC,[4],0.03 µg/mL
same,Average Count,"[4]; selection 4X MIC, 0.03 μg/mL",0 CFU
same,Count 1,"[4]; selection 4X MIC, 0.03 μg/mL",0 CFU
same,Count 2,"[4]; selection 4X MIC, 0.03 μg/mL",0 CFU
same,Spontaneous Mutation Frequency,"[4]; selection 4X MIC, 0.03 μg/mL",≤1.81 × 10^−10
same,Average Count,"[4]; selection 8X MIC, 0.06 μg/mL",0 CFU
same,Count 1,"[4]; selection 8X MIC, 0.06 μg/mL",0 CFU
same,Count 2,"[4]; selection 8X MIC, 0.06 μg/mL",0 CFU
same,Spontaneous Mutation Frequency,"[4]; selection 8X MIC, 0.06 μg/mL",≤1.81 × 10^−10
same,isolates with intermediate resistance,[5],Twenty
same,relative activity among drugs tested,[5],meropenem and rifaximin had similar activity
same,% I,[5]; [17],20%
same,% S,[5]; [17],80%
same,MIC50,[5]; [17],0.25 µg/mL
same,MIC90,[5]; [17],>8 µg/mL
same,MIC50,"[5]; Bacteroides fragilis, read-out: MIC50",0.25 µg/mL
same,MIC90,"[5]; Bacteroides fragilis, read-out: MIC90",> 8 µg/mL
same,Mode,[5]; [17],0.25 µg/mL
same,MIC,[6]; E. coli ATCC 35218,0.015 µg/mL
same,MIC,"[6]; Escherichia coli, ATCC35218",0.015 µg/mL
same,MIC,[7]; S. pneumoniae ATCC 49619,0.06 µg/mL
same,MIC,"[7]; Streptococcus pneumoniae, ATCC49619, broth microdilution, read-out: MIC",0.06 µg/mL
same,MIC,[8]; B. fragilis MMX 123 ATCC 25285,0.06 µg/mL
same,MIC,"[8]; Bacteroides fragilis, ATCC25285, broth microdilution, read-out: MIC",0.06 µg/mL
same,MIC,[9]; [18],0.12 µg/mL
same,MIC,"[9]; Bacteroides ovatus, MMX3503, broth microdilution, read-out: MIC",0.12 µg/mL
same,time-kill kinetics outcome (bactericidal = ≥3 log reduction in CFU per mL),[10],rapid killing and bactericidal activity at the two higher concentrations at 24 hr
same,time-kill kinetics outcome (bactericidal = ≥3 log reduction in CFU per mL),[11],bactericidal effect at 24 hr at 8×MIC
same,MIC,"[12]; read-out: Agar MIC, E. coli ATCC 25922",0.015 µg/mL
same,MIC,"[12]; read-out: Agar MIC, E. coli ATCC 35218",0.015 µg/mL
same,MIC,"[12]; read-out: Agar MIC, E. coli MMX 1312",0.015 µg/mL
same,MIC,"[12]; read-out: MIC values (agar dilution), over evaluated E. coli isolates (range stated jointly with other groups)",0.008 to 0.12 µg/mL
same,MIC,"[13]; ATCC25922, E. coli ATCC 25922, selected on rifaximin 4X MIC, Colony A",0.008 µg/mL
same,MIC,"[13]; ATCC25922, E. coli ATCC 25922, selected on rifaximin 4X MIC, Colony B",0.008 µg/mL
same,MIC,"[13]; ATCC25922, E. coli ATCC 25922, selected on rifaximin 8X MIC, Colony A",0.008 µg/mL
same,MIC,"[13]; ATCC25922, E. coli ATCC 25922 Parent (Table 52)",0.03 µg/mL
same,MIC,"[13]; ATCC35218, E. coli ATCC 35218, selected on rifaximin 4X MIC, Colony A",0.015 µg/mL
same,MIC,"[13]; ATCC35218, E. coli ATCC 35218, selected on rifaximin 4X MIC, Colony B",0.015 µg/mL
same,MIC,"[13]; ATCC35218, E. coli ATCC 35218, selected on rifaximin 8X MIC, Colony A",0.015 µg/mL
same,MIC,"[13]; ATCC35218, E. coli ATCC 35218, selected on rifaximin 8X MIC, Colony B",0.015 µg/mL
same,MIC,"[13]; ATCC35218, E. coli ATCC 35218 Parent (Table 52)",0.015 µg/mL
same,MIC,"[13]; E. coli MMX 1312, selected on ceftriaxone 4X MIC, Colony A",0.015 µg/mL
same,MIC,"[13]; E. coli MMX 1312, selected on ceftriaxone 4X MIC, Colony B",0.015 µg/mL
same,MIC,"[13]; E. coli MMX 1312, selected on ceftriaxone 4X MIC, Colony C",0.03 µg/mL
same,MIC,"[13]; E. coli MMX 1312, selected on ceftriaxone 8X MIC, Colony A",0.015 µg/mL
same,MIC,"[13]; E. coli MMX 1312, selected on ceftriaxone 8X MIC, Colony B",0.03 µg/mL
same,MIC,"[13]; E. coli MMX 1312, selected on ceftriaxone 8X MIC, Colony C",0.03 µg/mL
same,MIC,"[13]; E. coli MMX 1312, selected on rifaximin 4X MIC, Colony A",0.008 µg/mL
same,MIC,"[13]; E. coli MMX 1312, selected on rifaximin 4X MIC, Colony B",0.008 µg/mL
same,MIC,"[13]; E. coli MMX 1312, selected on rifaximin 8X MIC, Colony A",0.015 µg/mL
same,MIC,"[13]; E. coli MMX 1312, selected on rifaximin 8X MIC, Colony B",0.015 µg/mL
same,MIC,[13]; E. coli MMX 1312 Parent,0.015 µg/mL
same,MIC,[13]; E. coli MMX 1312 Parent (Table 49),0.015 µg/mL
same,MIC,[13]; E. coli MMX 1312 Parent (Table 52),0.015 µg/mL
same,MIC,"[13]; E. coli MMX 1312 mutant selected on meropenem 4X MIC, colony A",0.015 µg/mL
same,MIC,"[13]; E. coli MMX 1312 mutant selected on meropenem 4X MIC, colony B",0.015 µg/mL
same,MIC,"[13]; E. coli MMX 1312 mutant selected on meropenem 4X MIC, colony C",0.015 µg/mL
same,MIC,"[13]; E. coli MMX 1312 mutant selected on meropenem 8X MIC, colony A",0.015 µg/mL
same,MIC,"[13]; E. coli MMX 1312 mutant selected on meropenem 8X MIC, colony B",0.015 µg/mL
same,MIC,"[13]; E. coli MMX 1312 mutant selected on meropenem 8X MIC, colony C",0.015 µg/mL
same,broth microdilution MIC of selected colonies relative to parent strain,[13]; colonies selected at 4× and 8× the MIC,consistent with that of the parent strain
piperacillin/tazobactam [piperacillin-tazobactam],MIC,[6]; E. coli ATCC 35218,2/4
same,MIC,[7]; S. pneumoniae ATCC 49619,1 µg/mL
same,MIC,[8]; B. fragilis MMX 123 ATCC 25285,8 µg/mL
same,MIC,[9]; [18],>16 µg/mL
Cc1ncc([N+](=O)[O-])n1CCO [MTZ],% S,[5]; [17],100%
same,MIC50,[5]; [17],1 µg/mL
same,MIC90,[5]; [17],2 µg/mL
same,MIC range,[5]; [17],0.25 to 2 µg/mL
same,Mode,[5]; [17],1 µg/mL
"CN[C@H](CC(C)C)C(=O)N[C@H]1C(=O)N[C@@H](CC(N)=O)C(=O)N[C@H]2C(=O)N[C@H]3C(=O)N[C@H](C(=O)N[C@H](C(=O)O)c4cc(O)cc(O)c4-c4cc3ccc4O)[C@H](O)c3ccc(c(Cl)c3)Oc3cc2cc(c3O[C@@H]2O[C@H](CO)[C@@H](O)[C@H](O)[C@H]2O[C@H]2C[C@](C)(N)[C@H](O)[C@H](C)O2)Oc2ccc(cc2Cl)[C@H]1O [vancomycin, Vancomycin]",MIC,"[6]; Escherichia coli, ATCC35218, E. coli ATCC 35218, read-out: MIC",> 16 µg/mL
same,MIC,"[7]; Streptococcus pneumoniae, ATCC49619, S. pneumoniae ATCC 49619, read-out: MIC",0.25 µg/mL
same,MIC,"[8]; Bacteroides fragilis, ATCC25285, B. fragilis MMX 123 ATCC 25285, read-out: MIC",> 16 µg/mL
same,MIC,"[9]; Bacteroides ovatus, MMX3503, B. ovatus MMX 3504 (so in the source), read-out: MIC",> 16 µg/mL
